Results taken from US20250041429A1, “COMPOUND HAVING BTK PROTEIN DEGRADATION ACTIVITY, AND MEDICAL USES THEREOF” (UBIX THERAPEUTICS, INC., priority 2021, published 2025).

Molecular target: T1, BTK protein (Homo sapiens, UniProt Q06187)
T1 construct: endogenous in cells; host or cells: TMD-8 cells
Assay: Measurement of BTK protein degradation ability in TMD-8 cells (Western blotting)
Format: cell-based
Settings: harvested after 24 hours; for BTK degradation (%) 1 nM: compound 1 nM; for BTK degradation (%) 10 nM: compound 10 nM; for BTK degradation (%) 100 nM: compound 100 nM
Procedure, shortened: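 BTK levels were measured by immunoblotting of equal-protein RIPA lysates, normalized to GAPDH or β-actin, with chemiluminescent or infrared detection. Lysates came from TMD-8 cells exposed to compound for 24 h at final concentrations of 0.1, 1, 10 μM or 0.0001–0.1 μM, against a DMSO control.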

T1 sequence (Q06187 whole entry): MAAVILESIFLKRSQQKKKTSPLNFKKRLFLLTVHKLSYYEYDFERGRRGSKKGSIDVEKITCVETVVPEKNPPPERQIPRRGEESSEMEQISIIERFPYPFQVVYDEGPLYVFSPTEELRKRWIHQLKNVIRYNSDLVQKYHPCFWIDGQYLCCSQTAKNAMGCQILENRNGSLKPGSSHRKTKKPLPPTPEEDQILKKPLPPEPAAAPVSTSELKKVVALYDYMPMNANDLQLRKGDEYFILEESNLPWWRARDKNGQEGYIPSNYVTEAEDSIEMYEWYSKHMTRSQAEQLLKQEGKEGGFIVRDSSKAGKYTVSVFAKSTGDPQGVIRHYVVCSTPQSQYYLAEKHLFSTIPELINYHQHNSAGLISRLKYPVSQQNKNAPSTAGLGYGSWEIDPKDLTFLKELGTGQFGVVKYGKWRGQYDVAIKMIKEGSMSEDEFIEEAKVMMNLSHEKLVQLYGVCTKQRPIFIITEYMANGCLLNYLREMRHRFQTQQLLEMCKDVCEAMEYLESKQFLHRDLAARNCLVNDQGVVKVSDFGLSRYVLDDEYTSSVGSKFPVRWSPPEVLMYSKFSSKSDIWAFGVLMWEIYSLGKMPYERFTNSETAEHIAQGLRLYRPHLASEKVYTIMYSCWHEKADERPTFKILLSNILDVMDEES

Structure (SMILES) | BTK degradation (%) 1 nM | BTK degradation (%) 10 nM | BTK degradation (%) 100 nM
Cc1cc(-c2ccnc(Nc3ccc(C4CCN(C5CCN(c6ccc7c(c6)C(=O)N(C6CCC(=O)NC6=O)C7=O)CC5)CC4)cc3)n2)ccc1CNC(=O)N1CC(OC(C)C)C1 (stereo not drawn) [Example 110, N-(4-(2-((4-(1′-(2-(2,6-dioxopiperidin-3-yl)-1,3-dioxoisoindolin-5-yl)-[1,4′-bipiperidin]-4-yl)phenyl)amino)pyrimidin-4-yl)-2-methylbenzyl)-3-isopropoxyazetidine-1-carboxamide] | 28.0% | 92.0% | 99.5%
Cc1cc(-c2ccnc(Nc3ccc(N4CCC(CN5CCN(c6ccc7c(c6)C(=O)N(C6CCC(=O)NC6=O)C7=O)CC5)CC4)cc3)n2)ccc1CNC(=O)N1CC(OC(C)C)C1 (stereo not drawn) [Example 111, N-(4-(2-((4-(4-((4-(2-(2,6-dioxopiperidin-3-yl)-1,3-dioxoisoindolin-5-yl)piperazin-1-yl)methyl)piperidin-1-yl)phenyl)amino)pyrimidin-4-yl)-2-methylbenzyl)-3-isopropoxyazetidine-1-carboxamide] | 44% | 93.5% | 99.5%
Cc1cc(-c2ccnc(Nc3ccc(N4CC(CN5CCN(c6ccc7c(c6)C(=O)N(C6CCC(=O)NC6=O)C7=O)CC5)C4)cc3)n2)ccc1CNC(=O)N1CC(OC(C)C)C1 (stereo not drawn) [Example 112, N-(4-(2-((4-(3-((4-(2-(2,6-dioxopiperidin-3-yl)-1,3-dioxoisoindolin-5-yl)piperazin-1-yl)methyl)azetidin-1-yl)phenyl)amino)pyrimidin-4-yl)-2-methylbenzyl)-3-isopropoxyazetidine-1-carboxamide] | 44.0% | 97.0% | 100.0%
Cc1cc(-c2ccnc(Nc3ccc(N4CC(CN5CCN(C(=O)c6cccc(NC7CCC(=O)NC7=O)c6)CC5)C4)cc3)n2)ccc1CNC(=O)N1CC(OC(C)C)C1 (stereo not drawn) [Example 113, N-(4-(2-((4-(3-((4-(3-((2,6-dioxopiperidin-3-yl)amino)benzoyl)piperazin-1-yl)methyl)azetidin-1-yl)phenyl)amino)pyrimidin-4-yl)-2-methylbenzyl)-3-isopropoxyazetidine-1-carboxamide] | 39.5% | 97.0% | 100.0%
Cc1cc(-c2ccnc(Nc3ccc(N4CCC(C(=O)N5CCC(c6cccc(NC7CCC(=O)NC7=O)c6)CC5)CC4)cc3)n2)ccc1CNC(=O)N1CC(OC(C)C)C1 (stereo not drawn) [Example 116, N-(4-(2-((4-(4-(4-(3-((2,6-dioxopiperidin-3-yl)amino)phenyl)piperidine-1-carbonyl)piperidin-1-yl)phenyl)amino)pyrimidin-4-yl)-2-methylbenzyl)-3-isopropoxyazetidine-1-carboxamide] | 1.0% | 56.0% | 96.5%
Cc1cc(-c2ccnc(Nc3ccc(N4CCC(C(=O)N5CCC(c6ccc(NC7CCC(=O)NC7=O)cc6)CC5)CC4)cc3)n2)ccc1CNC(=O)N1CC(OC(C)C)C1 (stereo not drawn) [Example 117, N-(4-(2-((4-(4-(4-(4-((2,6-dioxopiperidin-3-yl)amino)phenyl)piperidine-1-carbonyl)piperidin-1-yl)phenyl)amino)pyrimidin-4-yl)-2-methylbenzyl)-3-isopropoxyazetidine-1-carboxamide] | 24.0% | 87.5% | 99.0%
Cc1cc(-c2ccnc(Nc3ccc(N4CCC(C(=O)N5CCC(c6ccc(OC7CCC(=O)NC7=O)cc6)CC5)CC4)cc3)n2)ccc1CNC(=O)N1CC(OC(C)C)C1 (stereo not drawn) [Example 118, N-(4-(2-((4-(4-(4-(4-((2,6-dioxopiperidin-3-yl)oxy)phenyl)piperidine-1-carbonyl)piperidin-1-yl)phenyl)amino)pyrimidin-4-yl)-2-methylbenzyl)-3-isopropoxyazetidine-1-carboxamide] | 15.0% | 68.0% | 97.5%
Cc1cc(-c2ccnc(Nc3ccc(N4CCC(CN5CCC(c6ccc(OC7CCC(=O)NC7=O)cc6)CC5)CC4)cc3)n2)ccc1CNC(=O)N1CC(OC(C)C)C1 (stereo not drawn) [Example 119, N-(4-(2-((4-(4-((4-(4-((2,6-dioxopiperidin-3-yl)oxy)phenyl)piperidin-1-yl)methyl)piperidin-1-yl)phenyl)amino)pyrimidin-4-yl)-2-methylbenzyl)-3-isopropoxyazetidine-1-carboxamide] | 41.5% | 91.0% | 99.5%
Cc1cc(-c2ccnc(Nc3ccc(N4CCC(CN5CCC(c6ccc(OC7CCC(=O)NC7=O)cn6)CC5)CC4)cc3)n2)ccc1CNC(=O)N1CC(OC(C)C)C1 (stereo not drawn) [Example 124, N-(4-(2-((4-(4-((4-(5-((2,6-dioxopiperidin-3-yl)oxy)pyridin-2-yl)piperidin-1-yl)methyl)piperidin-1-yl)phenyl)amino)pyrimidin-4-yl)-2-methylbenzyl)-3-isopropoxyazetidine-1-carboxamide] | −1.3% | 63.7% | 97.7%
Cc1cc(-c2ccnc(Nc3ccc(N4CCC(CN5CCN(c6ccc(OC7CCC(=O)NC7=O)cn6)CC5)CC4)cc3)n2)ccc1CNC(=O)N1CC(OC(C)C)C1 (stereo not drawn) [Example 125, N-(4-(2-((4-(4-((4-(5-((2,6-dioxopiperidin-3-yl)oxy)pyridin-2-yl)piperazin-1-yl)methyl)piperidin-1-yl)phenyl)amino)pyrimidin-4-yl)-2-methylbenzyl)-3-isopropoxyazetidine-1-carboxamide] | 14.7% | 85.0% | 99.3%
Cc1cc(-c2ccnc(Nc3ccc(N4CCC(CN5CCC(c6ccc(NC7CCC(=O)NC7=O)cn6)CC5)CC4)cc3)n2)ccc1CNC(=O)N1CC(OC(C)C)C1 (stereo not drawn) [Example 126, N-(4-(2-((4-(4-((4-(5-((2,6-dioxopiperidin-3-yl)amino)pyridin-2-yl)piperidin-1-yl)methyl)piperidin-1-yl)phenyl)amino)pyrimidin-4-yl)-2-methylbenzyl)-3-isopropoxyazetidine-1-carboxamide] | 39.7% | 95.7% | 100.0%

Second part, the molecule after the results:

BTK degradation (%) 1 nM | BTK degradation (%) 10 nM | BTK degradation (%) 100 nM | Structure (SMILES)
59.0% | 99.5% | 99.5% | Cc1cc(-c2ccnc(Nc3ccc(N4CCC(CN5CCN(C(=O)c6cccc(NC7CCC(=O)NC7=O)c6)CC5)CC4)cc3)n2)ccc1CNC(=O)N1CC(OC(C)C)C1 (stereo not drawn) [Example 114, N-(4-(2-((4-(4-((4-(3-((2,6-dioxopiperidin-3-yl)amino)benzoyl)piperazin-1-yl)methyl)piperidin-1-yl)phenyl)amino)pyrimidin-4-yl)-2-methylbenzyl)-3-isopropoxyazetidine-1-carboxamide]
48.0% | 97.0% | 100.0% | Cc1cc(-c2ccnc(Nc3ccc(N4CCN(CC5CCN(Cc6cccc(NC7CCC(=O)NC7=O)c6)CC5)CC4)cc3)n2)ccc1CNC(=O)N1CC(OC(C)C)C1 (stereo not drawn) [Example 115, N-(4-(2-((4-(4-((1-(3-((2,6-dioxopiperidin-3-yl)amino)benzyl)piperidin-4-yl)methyl)piperazin-1-yl)phenyl)amino)pyrimidin-4-yl)-2-methylbenzyl)-3-isopropoxyazetidine-1-carboxamide]
18.5% | 91.5% | 99.5% | Cc1cc(-c2ccnc(Nc3ccc(N4CCC(CN5CCN(c6cccc(NC7CCC(=O)NC7=O)c6)CC5)CC4)cc3)n2)ccc1CNC(=O)N1CC(OC(C)C)C1 (stereo not drawn) [Example 120, N-(4-(2-((4-(4-((4-(3-((2,6-dioxopiperidin-3-yl)amino)phenyl)piperazin-1-yl)methyl)piperidin-1-yl)phenyl)amino)pyrimidin-4-yl)-2-methylbenzyl)-3-isopropoxyazetidine-1-carboxamide]
43.0% | 97.0% | 100.0% | Cc1cc(-c2ccnc(Nc3ccc(N4CCC(CN5CCN(c6ccc(NC7CCC(=O)NC7=O)cc6)CC5)CC4)cc3)n2)ccc1CNC(=O)N1CC(OC(C)C)C1 (stereo not drawn) [Example 121, N-(4-(2-((4-(4-((4-(4-((2,6-dioxopiperidin-3-yl)amino)phenyl)piperazin-1-yl)methyl)piperidin-1-yl)phenyl)amino)pyrimidin-4-yl)-2-methylbenzyl)-3-isopropoxyazetidine-1-carboxamide]
−9.0% | 63.0% | 98.5% | Cc1cc(-c2ccnc(Nc3ccc(N4CCC(CN5CCC(c6cccc(NC7CCC(=O)NC7=O)c6)CC5)CC4)cc3)n2)ccc1CNC(=O)N1CC(OC(C)C)C1 (stereo not drawn) [Example 122, N-(4-(2-((4-(4-((4-(3-((2,6-dioxopiperidin-3-yl)amino)phenyl)piperidin-1-yl)methyl)piperidin-1-yl)phenyl)amino)pyrimidin-4-yl)-2-methylbenzyl)-3-isopropoxyazetidine-1-carboxamide]
17.5% | 92.5% | 100.0% | Cc1cc(-c2ccnc(Nc3ccc(N4CCC(CN5CCC(c6ccc(NC7CCC(=O)NC7=O)cc6)CC5)CC4)cc3)n2)ccc1CNC(=O)N1CC(OC(C)C)C1 (stereo not drawn) [Example 123, N-(4-(2-((4-(4-((4-(4-((2,6-dioxopiperidin-3-yl)amino)phenyl)piperidin-1-yl)methyl)piperidin-1-yl)phenyl)amino)pyrimidin-4-yl)-2-methylbenzyl)-3-isopropoxyazetidine-1-carboxamide]
